Reference: patent publication US8476256B2, “Diazonamide analogs” (Joyant Pharmaceuticals, Inc., priority 2008, dated 2013)

Tests used:
[1] = tested on: A2058 (human melanoma) cell line; test: Cell viability assay (CELL-TITER-GLO), A2058; assay type: cell-based; conditions: A2058 cells, 48 hour treatment, 1 nM to 1 μM
Protocol: (§1) Cell viability assays were run using standard protocols known to those of skill in art. Cells were plated in 96 well plates at the density of 3,000-10,000 cells per well. Twenty four hours later, cells were treated with increasing concentration of test compounds (1 nM to 1 μM). After another 48 hour, cell survival was measured using CELL-TITER-GLO® reagent (Promega) following the protocol provided by the manufacture. The IC50 value was determined as the concentration of test compound that kills 50% of the cell population.
(§2) Cell viability data generated according to the protocol described herein was generated for representative compounds in the A2058 (human melanoma) and U937 (human leukemic monocyte lymphoma) cell lines. The compound of Example 16 (“Compound J”) was used as a reference compound.

[2] = tested on: U937 (human leukemic monocyte lymphoma) cell line; test: Cell viability assay (CELL-TITER-GLO), U937; assay type: cell-based; conditions: U-937, U937 cells, 48 hour treatment, 1 nM to 1 μM
Protocol: as §1, §2

[3] = tested on: MiaPaca (pancreatic cancer) cells; test: MiaPaca xenograft model, tumor free animals; assay type: in vivo, Athymic nude mice; conditions: 20 mg/kg, tail vein injection, 6 injections (days 9, 11, 14, 16, 18, 21); at 35 days post tumor cell injection; 7 mice/group
Protocol: Animals: Athymic nude mice, female, 6-7 weeks old, 20-25 g. Animals bearing with 180-400 mg tumors were selected for experiment. 7 mice/group.
Administration: Tail vein injection, 200 μL/mouse, to provide the dose indicated.
Dosing schedule: 6 injections were given on the days indicated post-tumor cell injection.
Controls: Vehicle, Compound J at 20 mg/kg.
Test Compound preparation: Compound J and all test compounds were dissolved in 50% Cremophore/EtOH (1:1) at 10 mg/mL as stock solution. Each compound solution was diluted with saline before injection to the concentration indicated.
Xenograft Model: MiaPaca (pancreatic cancer) cells
Dosing schedule: 6 injections were given on days 9, 11, 14, 16, 18 and 21 post-tumor cell injection.
Test Compounds: Example 23, Example 24, and Example 53, at 20 mg/kg.
For animals treated with the compound of Example 24 at 20 mg/kg, 7 of 7 animals were tumor free at 35 days post tumor cell injection.

Compound | IC50 [1] | IC50 [2] | Tumor-free animals out of 7 [3]
CC(C)[C@H](O)C(=O)N[C@H]1Cc2ccc3c(c2)[C@]24C5=C(N=C(O5)[C@H](C(C)C)NC1=O)c1ncc(o1)-c1c[nH]c5cccc(c15)-c1cccc2c1NC4O3 (some centres unmarked) [Example 16, reference compound] | 0.043 µM | 0.034 µM | 0/7 (35)
CCC(C)(O)C(=O)NC1Cc2ccc3c(c2)[C@]24C5=C(N=C(O5)[C@H](C(C)C)NC1=O)c1ncc(o1)-c1c[nH]c5cccc(c15)-c1cccc2c1NC4O3 (some centres unmarked) [Example 23] | 0.124 µM | 0.156 µM | 0/7 (35)
CC(C)[C@@H]1NC(=O)C(NC(=O)[C@H]2CCOC2)Cc2ccc3c(c2)[C@]24C5=C(N=C1O5)c1ncc(o1)-c1c[nH]c5cccc(c15)-c1cccc2c1NC4O3 (some centres unmarked) [Example 53] | 0.209 µM | 0.078 µM | 1/7 (35)
CC(C)[C@@H]1NC(=O)C(NC(C[N+](=O)[O-])C(F)(F)F)Cc2ccc3c(c2)C24C5=C(N=C1O5)c1ncc(o1)-c1c[nH]c5cccc(c15)-c1cccc2c1N[C@H]4O3 (some centres unmarked) [Example 92] | > 1 µM | 0.75 µM | 
